Experimental data published in US20110136880A1, “Latrunculin-Based Macrolides and Their Uses” (priority 2009, published 2011).

How the values were obtained:
MDA-MB-231 = assay: Wound-healing assay; assay type: cell-based, human; details: 100 nM dose
Description: Wound-healing assay. MDA-MB-231 cells are plated onto sterile 24-well plates and allowed to form a confluent cell monolayer (>95% confluence) overnight. Wounds are then inflicted on each cell monolayer using a sterile 200 μL pipette tip. Media are removed, and cells are washed twice with PBS and once with fresh serum-free media. Test latrunculin compounds at various concentrations (100 nM-10 μM) in fresh, serum-free media are added to each well and incubated for 24 h under serum-starved conditions. Media are then removed, and the cells are washed, fixed and stained using Diff-Quick™ staining (Dade Behring Diagnostics, Aguada, Puerto Rico). Cells that have migrated across the inflicted wound are counted under the microscope in three or more randomly selected fields (magnification: 400×). All experiments are conducted independently in triplicate replications.

[1] = system: alkaline phosphatase in C2C12 cells; assay: Alkaline phosphatase in C2C12 cells (Wnt pathway); assay type: cell-based; details: Mus musculus
Text: (§1) Effects on Wnt/β-catenin. […] These two compounds affected both alkaline phosphatase and β-catenin levels in C2C12 cells.

pyrene-conjugated actin = target: T1, pyrene-conjugated actin (Oryctolagus cuniculus, UniProt P68135); assay: Pyrene actin polymerization assay; assay type: biochemical; details: for inhibition at 0.1 µM: 100 nM, read-out: Actin polymerization inhibition (%) 100 nM; for inhibition at 0.1 µM / inhibition at 1 µM: compared to vehicle control (DMSO); for inhibition at 1 µM: read-out: Actin polymerization inhibition (%) 1 μM; for IC50: mean ± SEM, triplicate
T1 construct: purchased Cytoskeleton, Denver, Colo
Description: An actin polymerization kit was used to assess the direct actin-binding activity of each analogue at two concentrations: 100 nM and 1 μM. This kit is based on the enhanced fluorescence of pyrene-conjugated actin that occurs during polymerization. When pyrene-G-actin (monomer) forms pyrene-F-actin, fluorescence is enhanced. The enhanced fluorescence is used to follow polymerization over time. Table 2 lists activities as the percentage of actin polymerization inhibition, compared to the negative vehicle control (DMSO), along with calculated IC50.
Pyrene-Actin Polymerization Assays. Actin polymerization assays were performed in accordance with the manufacturer's instructions (Cytoskeleton, Denver, Colo.). Briefly, […] final concentration of monomeric actin (1:10 pyrene labeled) was incubated on ice for 10 min with one of various concentrations of one of the latrunculin derivatives. Samples were then equilibrated 10 min in an ELISA plate reader (BioTek, VT), after which polymerization was induced by adding KCl, MgCl2, and ATP. Compounds 1-14 were tested at 0.1, 0.5, 1.0, and 10 μM. The IC50 for each compound was calculated using GraphPad Prism 5.0.
Pyrene-actin polymerization assays. Actin polymerization inhibitory activity is assessed using the Cytoskeleton Actin Polymerization kit (Cytoskeleton, Denver, Colo.). Briefly, […] (final concentration) of monomeric actin (1:10 pyrene labeled) is incubated on ice for 10 min with one of various concentrations of the test latrunculin compound. Samples are equilibrated 10 min in an ELISA plate reader (BioTek, VT), after which polymerization is induced by adding KCl, MgCl2, and ATP. Compounds are tested at 0.1, 0.5, 1.0, and 10 μM. The IC50 for each compound is calculated using GraphPad Prism 5.0.

[2] = system: prostate cancer cell line PC-3; assay: Invasion assay, PC-3; assay type: cell-based, human; details: without cytotoxicity
β-catenin in C2C12 cells = assay: Wnt/β-catenin signaling, β-catenin levels in C2C12 cells; assay type: cell-based
Text: as §1

[3] = system: breast, CNS, colon, lung, melanoma, ovarian, and renal cancer cells; assay: Antiproliferative testing against 60 cell lines (NSC compounds); assay type: cell-based
array of kinases = assay: Kinase profiling; assay type: binding; details: any kinase tested
Description: Latrunculins B and H (compounds 20 and 14, respectively) were tested in a panel of assays including ApoE secretion, anti-angiogenesis, G2/M, Wnt pathway, insulin secretion, and an array of kinase profiling. The G2/M assays include HeLa cell proliferation, apoptosis, DNA content, and condensation, cyclin B, and phosphor-histone H3. […] Alkaline phosphatases may perhaps be a target of the anti-invasive latrunculin 11.

SMILES | anti-migratory activity (MDA-MB-231) | IC50 [1] [nM] | inhibition at 0.1 µM (pyrene-conjugated actin) [%] | inhibition at 1 µM (pyrene-conjugated actin) [%] | IC50 (pyrene-conjugated actin) [nM] | anti-invasive activity against PC-3 [2] | Wnt/β-catenin signaling (β-catenin in C2C12 cells) | IC50 (β-catenin in C2C12 cells; Mus musculus) [nM] | number of the 60 cell lines tested with antiproliferative activity ([3]; dose of 10 μM) | log10GI50 ([3]; five-points dose-response, range over active cell lines) | affinity toward kinases (array of kinases)
COc1ccc(CC(=O)N2C(=O)SC[C@H]2[C@@]2(OC)C[C@H]3C[C@@H](CC[C@H](C)/C=C\C=C\CC/C(C)=C\C(=O)O3)O2)cc1 [Compound 11, 17-O-Methyl-N-(7′-methoxyphenylacetyl)latrunculin A] | potent anti-migratory | 4 | 0 | 13 | > 10000 | potent anti-invasive activity | strongly inhibited | 7 | – | – | –
C/C1=C/C(=O)O[C@@H]2C[C@@H](CC[C@H](C)/C=C\C=C\CC1)O[C@@](O)([C@@H]1CSC(=O)N1CO)C2 [Compound 14, N-Hydroxymethyllatrunculin A] | – | – | 35 | 90 | 210 ± 54 | – | – | – | 18 | −7.13 to −7.83 | Neither compound 20 nor compound 14 showed affinity toward any kinase tested
